Experimental data published in patent US20100048950A1 (BOEHRINGER INGELHEIM INTERNATIONAL GMBH, priority 2007, published 2010).

These compounds were tested against T1, human glucocorticoid receptor (GR) complex (Homo sapiens, UniProt P04150) (assay: Glucocorticoid receptor competitive binding assay (fluorescence polarization)). Conditions: competition with TAMRA-labeled dexamethasone, read-out: potent activity (IC50) in the GR binding assay.
T1 construct: made in house; host or cells: insect expression system (baculovirus lysate)
T1 sequence (P04150 1-777): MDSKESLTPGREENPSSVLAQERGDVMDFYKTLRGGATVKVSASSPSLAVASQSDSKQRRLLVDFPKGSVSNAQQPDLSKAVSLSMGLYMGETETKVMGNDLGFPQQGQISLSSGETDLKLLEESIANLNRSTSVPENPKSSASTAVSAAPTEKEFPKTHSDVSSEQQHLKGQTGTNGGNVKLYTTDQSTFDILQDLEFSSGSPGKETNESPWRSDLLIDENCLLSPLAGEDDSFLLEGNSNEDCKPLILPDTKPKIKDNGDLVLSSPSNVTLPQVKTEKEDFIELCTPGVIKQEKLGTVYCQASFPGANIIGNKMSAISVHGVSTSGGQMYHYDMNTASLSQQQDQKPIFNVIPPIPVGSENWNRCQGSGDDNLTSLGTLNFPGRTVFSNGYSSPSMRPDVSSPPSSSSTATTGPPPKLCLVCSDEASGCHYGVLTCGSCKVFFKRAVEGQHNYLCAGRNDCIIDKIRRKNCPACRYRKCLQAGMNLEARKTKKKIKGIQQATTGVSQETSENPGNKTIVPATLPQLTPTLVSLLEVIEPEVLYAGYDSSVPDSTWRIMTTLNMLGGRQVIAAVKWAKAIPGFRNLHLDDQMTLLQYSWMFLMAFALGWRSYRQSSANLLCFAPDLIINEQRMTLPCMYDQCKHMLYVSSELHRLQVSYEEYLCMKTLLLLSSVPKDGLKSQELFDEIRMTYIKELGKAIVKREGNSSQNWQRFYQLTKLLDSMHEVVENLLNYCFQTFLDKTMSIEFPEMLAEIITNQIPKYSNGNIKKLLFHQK
Procedure: Compounds of the invention were evaluated for binding to the steroid receptor by a fluorescence polarization competitive binding assay. Detailed descriptions for preparation of recombinant glucocorticoid receptor (GR) complex used in the assay is described in U.S. Patent Application Publication No. US 2003/0017503, filed May 20, 2002, and incorporated herein by reference in its entirety. Preparation of the tetramethylrhodamine (TAMRA)-labeled dexamethasone probe was accomplished using a standard literature procedure (M. Pons et al., J. Steroid Biochem., 1985, 22, pp. 267-273).
The affinity of the probe for the steroid receptor was then determined in a titration experiment. The fluorescence polarization value of the probe in assay buffer was measured on an SLM-8100 fluorometer using the excitation and emission maximum values described above. Aliquots of expression vector lysate were added and fluorescence polarization was measured after each addition until no further change in polarization value was observed. Non-linear least squares regression analysis was used to calculate the dissociation constant of the probe from the polarization values obtained for lysate binding to the probe.
This assay uses fluorescence polarization (FP) to quantitate the ability of test compounds to compete with tetramethylrhodamine (TAMRA)-labeled dexamethasone for binding to a human glucocorticoid receptor (GR) complex prepared from an insect expression system. The assay buffer was: 10 mM TES, 50 mM KCl, 20 mM Na2MoO4.2H2O, 1.5 mM EDTA, 0.04% w/v CHAPS, 10% v/v glycerol, 1 mM dithiothreitol, pH 7.4. Test compounds were dissolved to 1 mM in neat DMSO and then further diluted to 10× assay concentration in assay buffer supplemented with 10% v/v DMSO. Test compounds were serially diluted at 10× assay concentrations in 10% DMSO-containing buffer in 96-well polypropylene plates. Binding reaction mixtures were prepared in 96-well black Dynex microtiter plates by sequential addition of the following assay components to each well: 15 μL of 10× test compound solution, 85 μL of GR-containing baculovirus lysate diluted 1:170 in assay buffer, and 50 μL of 15 nM TAMRA-labeled dexamethasone. Positive controls were reaction mixtures containing no test compound; negative controls (blanks) were reaction mixtures containing 0.7 μM to 2 μM dexamethasone. The binding reactions were incubated for 1 hour at room temperature and then read for fluorescence polarization in the LJL Analyst set to 550 nm excitation and 580 nm emission, with the Rhodamine 561 dichroic mirror installed. IC50 values were determined by iterative non-linear curve fitting of the FP signal data to a 4-parameter logistic equation.

IC50, ≤ 100 nM:
CSc1cccc(NCC(NS(=O)(=O)c2c(C)cc(C)cc2C)C(F)(F)F)c1 (centres unmarked) [2,4,6-Trimethyl-N-{2,2,2-trifluoro-1-[(3-methylsulfanylphenylamino)methyl]ethyl}benzenesulfonamide], Cc1cc(C)c(S(=O)(=O)NC(CSc2cc(C)ccc2C)C(F)(F)F)c(C)c1 (centres unmarked) [N-[1-(2,5-Dimethylphenylsulfanylmethyl)-2,2,2-trifluoroethyl]-2,4,6-trimethylbenzenesulfonamide], Cc1cc(C)c(S(=O)(=O)NC(CSc2ccc(Br)cc2)C(F)(F)F)c(C)c1 (centres unmarked) [N-[1-(4-Bromophenylsulfanylmethyl)-2,2,2-trifluoroethyl]-2,4,6-trimethylbenzenesulfonamide], Cc1cc(C)c(S(=O)(=O)NC(CNc2c(Cl)cccc2Cl)C(F)(F)F)c(C)c1 (centres unmarked) [N-{1-[(2,6-Dichlorophenylamino)methyl]-2,2,2-trifluoroethyl}-2,4,6-trimethylbenzenesulfonamide], Cc1cc(C)c(S(=O)(=O)NC(CN(C)c2ccccc2)C(F)(F)F)c(C)c1 (centres unmarked) [2,4,6-Trimethyl-N-{2,2,2-trifluoro-1-[(methylphenylamino)methyl]ethyl}benzenesulfonamide], Cc1cc(C)c(S(=O)(=O)NC(CNc2ccccc2OC(F)(F)F)C(F)(F)F)c(C)c1 (centres unmarked) [2,4,6-Trimethyl-N-{2,2,2-trifluoro-1-[(2-trifluoromethoxyphenylamino)methyl]ethyl}benzenesulfonamide], Cc1cc(C)c(S(=O)(=O)NC(CSc2ccccc2Cl)C(F)(F)F)c(C)c1 (centres unmarked) [N-[1-(2-Chlorophenylsulfanylmethyl)-2,2,2-trifluoroethyl]-2,4,6-trimethylbenzenesulfonamide], Cc1cc(C)c(S(=O)(=O)NC(COc2cccc(F)c2)C(F)(F)F)c(C)c1 (centres unmarked) [2,4,6-Trimethyl-N-[2,2,2-trifluoro-1-(3-fluorophenoxymethyl)ethyl]benzenesulfonamide], Cc1cc(C)c(S(=O)(=O)NC(CNc2ccc(C#N)cc2)C(F)(F)F)c(C)c1 (centres unmarked) [N-{1-[(4-Cyanophenylamino)methyl]-2,2,2-trifluoroethyl}-2,4,6-trimethylbenzenesulfonamide], Cc1cc(C)c(S(=O)(=O)NC(CNc2cccc(Cl)c2)C(F)(F)F)c(C)c1 (centres unmarked) [N-{1-[(3-Chlorophenylamino)methyl]-2,2,2-trifluoroethyl}-2,4,6-trimethylbenzenesulfonamide], Cc1cc(C)c(S(=O)(=O)NC(CSc2ccc(F)c(Cl)c2)C(F)(F)F)c(C)c1 (centres unmarked) [N-[1-(3-Chloro-4-fluorophenylsulfanylmethyl)-2,2,2-trifluoroethyl]-2,4,6-trimethylbenzenesulfonamide], Cc1cc(C)c(S(=O)(=O)NC(COc2ccc(C)c(Cl)c2)C(F)(F)F)c(C)c1 (centres unmarked) [N-[1-(3-Chloro-4-methylphenoxymethyl)-2,2,2-trifluoroethyl]-2,4,6-trimethylbenzenesulfonamide], COc1ccc(C(F)(F)F)cc1NCC(NS(=O)(=O)c1c(C)cc(C)cc1C)C(F)(F)F (centres unmarked) [2,4,6-Trimethyl-N-{2,2,2-trifluoro-1-[(2-methoxy-5-trifluoromethylphenylamino)methyl]ethyl}benzenesulfonamide], Cc1cc(C)c(S(=O)(=O)NC(CN(C)c2ccccc2OC(F)(F)F)C(F)(F)F)c(C)c1 (centres unmarked) [2,4,6-Trimethyl-N-(2,2,2-trifluoro-1-{[methyl-(2-trifluoromethoxyphenyl)amino]methyl}-ethyl)benzenesulfonamide], CCN(CC(NS(=O)(=O)c1c(C)cc(C)cc1C)C(F)(F)F)c1cccc(C)c1 (centres unmarked) [N-{1-[(Ethyl-m-tolylamino)methyl]-2,2,2-trifluoroethyl}-2,4,6-trimethylbenzenesulfonamide], Cc1cc(C)c(S(=O)(=O)NC(CSc2c(Cl)cccc2Cl)C(F)(F)F)c(C)c1 (centres unmarked) [N-[1-(2,6-Dichlorophenylsulfanylmethyl)-2,2,2-trifluoroethyl]-2,4,6-trimethylbenzenesulfonamide], CCN(CC(NS(=O)(=O)c1c(C)cc(C)cc1C)C(F)(F)F)c1ccccc1 (centres unmarked) [N-{1-[(Ethylphenylamino)methyl]-2,2,2-trifluoroethyl}-2,4,6-trimethylbenzenesulfonamide], COc1cc(NCC(NS(=O)(=O)c2c(C)cc(C)cc2C)C(F)(F)F)cc(C(F)(F)F)c1 (centres unmarked) [2,4,6-Trimethyl-N-{2,2,2-trifluoro-1-[(3-methoxy-5-trifluoromethylphenylamino)methyl]ethyl}benzenesulfonamide], Cc1cc(C)c(S(=O)(=O)NC(CN(CCC#N)c2ccccc2)C(F)(F)F)c(C)c1 (centres unmarked) [N-(1-{[(2-Cyanoethyl)phenylamino]methyl}-2,2,2-trifluoroethyl)-2,4,6-trimethylbenzenesulfonamide], Cc1cc(C)c(S(=O)(=O)NC(COc2ccc(Cl)cc2F)C(F)(F)F)c(C)c1 (centres unmarked) [N-[1-(4-Chloro-2-fluorophenoxymethyl)-2,2,2-trifluoroethyl]-2,4,6-trimethylbenzenesulfonamide], Cc1cccc(OCC(NS(=O)(=O)c2c(C)cc(C)cc2C)C(F)(F)F)c1 (centres unmarked) [2,4,6-Trimethyl-N-(2,2,2-trifluoro-1-m-tolyloxymethylethyl)benzenesulfonamide], Cc1cc(C)c(S(=O)(=O)NC(CNc2cccc3c2CCCC3)C(F)(F)F)c(C)c1 (centres unmarked) [2,4,6-Trimethyl-N-{2,2,2-trifluoro-1-[(5,6,7,8-tetrahydronaphthalen-1-ylamino)methyl]ethyl}benzenesulfonamide], Cc1cc(C)c(S(=O)(=O)NC(CSc2ccc(C(C)C)cc2)C(F)(F)F)c(C)c1 (centres unmarked) [2,4,6-Trimethyl-N-[2,2,2-trifluoro-1-(4-isopropylphenylsulfanylmethyl)ethyl]benzenesulfonamide], Cc1cc(C)cc(NCC(NS(=O)(=O)c2c(C)cc(C)cc2C)C(F)(F)F)c1 (centres unmarked) [N-{1-[(3,5-Dimethylphenylamnino)methyl]-2,2,2-trifluoroethyl}-2,4,6-trimethyl-benzenesulfonamide], Cc1ccc(SCC(NS(=O)(=O)c2c(C)cc(C)cc2C)C(F)(F)F)c(C)c1 (centres unmarked) [N-[1-(2,4-Dimethylphenylsulfanylmethyl)-2,2,2-trifluoroethyl]-2,4,6-trimethylbenzenesulfonamide], Cc1cc(C)c(S(=O)(=O)NC(CNc2cccc(C(F)(F)F)c2)C(F)(F)F)c(C)c1 (centres unmarked) [2,4,6-Trimethyl-N-{2,2,2-trifluoro-1-[(3-trifluoromethylphenylamino)methyl]ethyl}benzenesulfonamide], COc1cccc(SCC(NS(=O)(=O)c2c(C)cc(C)cc2C)C(F)(F)F)c1 (centres unmarked) [2,4,6-Trimethyl-N-[2,2,2-trifluoro-1-(3-methoxyphenylsulfanylmethyl)ethyl]benzenesulfonamide], Cc1cccc(NCC(NS(=O)(=O)c2c(C)cc(C)cc2C)C(F)(F)F)c1 (centres unmarked) [2,4,6-Trimethyl-N-[2,2,2-trifluoro-1-(m-tolylaminomethyl)ethyl]benzenesulfonamide], COC(=O)c1ccccc1N(C)CC(NS(=O)(=O)c1c(C)cc(C)cc1C)C(F)(F)F (centres unmarked) [2-{Methyl-[3,3,3-trifluoro-2-(2,4,6-trimethylbenzenesulfonylamino)propyl]amino}benzoic acid methyl ester]
